Measured values: US20070134670A1, “Methods for prediction and prognosis of cancer, and monitoring cancer therapy” (BAYER PHARMACEUTICALS CORPORATION, priority 2003, published 2007)

Test system: stanniocalcin expression in HMVEC cells
Experiment: In vitro endothelial cell gene expression profiling (Affymetrix / TaqMan), HMVEC
Type: cell-based, human
Conditions: HMVECs; VEGF 10 ng/ml with heparin, 2 hours (FIG. 2A)
Description: Pooled human microvascular endothelial cells (HMVECs) or human umbilical vein endothelial cells (HUVECs) were purchased as 2 T75 flasks (Clonetics, Cambrex Corporation, East Rutherford, N.J.). Cells were expanded in fill Clonetics growth media (EGF+5% FCS) on 2% gelatin coated flasks until sufficient numbers were obtained to perform the experiment (4 flasks each at less than 6 passages). Prior to the treatments, cells were washed 2× in PBS and starved overnight in basal media (EBM+0.2% endotoxin free BSA). The next day, media was removed and replaced with 25 ml of EBM+BSA. VEGFR2 inhibitor (drug) stock was made in DMSO and added to a final concentration of 100 nm in 0.1% DMSO. Heparin was used at 1.5 U/ml final concentration. VEGF final concentration was 10 ng/ml. Drug/DMSO was added for 30 minutes prior to adding VEGF/Heparin for 2 hours. […] RNA was subsequently isolated via Qiagen midi spin kits and quantitated by OD260/280 and gel visualization and/or Agilent bioanalyzer.
Samples were organically extracted and ethanol precipitated. […] The resulting cRNA was put through RNeasy clean-up protocol, and then quantified using UV spectrophotometry. […]
A master mix of the primers at 50 μM each was prepared. The samples were analyzed by standard PCR conditions on an ABI PRISM 7700 Sequence Detector using SYBR green probes. β-actin was used as controls for loading normalization.

Substance: VEGF
- human stanniocalcin-1 expression induced after treatment with VEGF: ~20 fold
